Consider 14 compounds from PubChem BioAssay (NCI).

Where “and” joins values, the source holds several entries; their conditions need not be identical. Equal values may be shown once.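 Growth conditions: 96-well plates. Treatment: test compound, 48 hours, 5 concentrations. Analysis: linear interpolation between bracketing concentrations; unreached endpoints set to highest concentration. Here, GI50 denotes the concentration required for 50% inhibition of growth. Definition used: TGI = concentration required for complete inhibition of growth.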

Test systems include MALME-3M melanoma; SK-MEL-2 melanoma; NCI-H226 lung; MDA-MB-435; K-562 leukemia; COLO 205 colon; CCRF-CEM leukemia; A549 NSCLC; IGROV1 ovarian.
Holding throughout (test): DTP human tumour cell line panel, 48 h

The term GI50 denotes the concentration that inhibits growth by half. One may read the TGI as the concentration at which net growth stops. A lower TGI goes with greater sensitivity of the cells. Turning to `CC(=O)OC1COC(Oc2c(C)c3c4c(c2O)[C@@H](C)CC[C@@H]4[C@@H](C)C[C@H]3C=C(C)C)C(O)C1O` (some centres undefined), the GI50 was 13.2 µM in the test on MALME-3M melanoma; 47.1 µM in the test on SK-MEL-2 melanoma; 21.8 µM with NCI-H226 lung; 15.4 µM in the test with MDA-MB-435; 10.3 µM in the test on K-562 leukemia; 26.4 µM in the test on COLO 205 colon. Further, the GI50 in the test on CCRF-CEM leukemia was 11.1 µM; in the test on A549 NSCLC, 16.8 µM; in the test with IGROV1 ovarian it was 20.1 µM. The TGI is 27.3 µM in the test on MALME-3M melanoma; > 100 µM in the test on SK-MEL-2 melanoma; 52.3 µM with NCI-H226 lung; 30.6 µM in the test on MDA-MB-435; 27.1 µM in the test on K-562 leukemia; > 100 µM with COLO 205 colon. Moreover, the TGI in the test on CCRF-CEM leukemia is 35.6 µM; with A549 NSCLC, 43.7 µM; with IGROV1 ovarian, > 100 µM.

Regarding `CC1CCC2c3c([nH]c4ccccc34)C3C(=O)N(c4ccccc4)C(=O)C3C2C1` (centres undefined), the TGI with MALME-3M melanoma is 215 µM; in the test with SK-MEL-2 melanoma, 91.4 µM; in the test on NCI-H226 lung, 96.4 µM and 161 µM; in the test on K-562 leukemia, 202 µM; in the test on CCRF-CEM leukemia it was 42 µM and > 250 µM; with A549 NSCLC, > 250 µM. Moreover, the TGI in the test with IGROV1 ovarian was 57 µM and 130 µM. For the same compound, the GI50 was 62.3 µM in the test with NCI-H226 lung; 54.8 µM in the test with K-562 leukemia; 194 µM with CCRF-CEM leukemia; > 250 µM with A549 NSCLC; 38.2 µM with IGROV1 ovarian.

For `O=S(=O)(Cc1ccccc1)SCc1ccccc1`, the TGI was 73.6 µM with MALME-3M melanoma; > 70.9 µM with SK-MEL-2 melanoma; 54.4 µM in the test with NCI-H226 lung; 33.5 µM with K-562 leukemia; 34.3 µM with COLO 205 colon; > 27.5 µM with CCRF-CEM leukemia. For the same compound, the TGI with A549 NSCLC is > 100 µM; with IGROV1 ovarian it was > 84.7 µM.

As to `CC1=C(C(=O)CC(=O)C(=O)Nc2ccccc2C)Sc2ccccc2N1`, the TGI in the test on MALME-3M melanoma is > 100 µM; with SK-MEL-2 melanoma, > 100 µM; in the test on NCI-H226 lung, > 100 µM; in the test with K-562 leukemia, > 100 µM; in the test with COLO 205 colon, > 61.6 µM; with CCRF-CEM leukemia, > 100 µM. Also, the TGI with A549 NSCLC and in the test with IGROV1 ovarian was > 100 µM each time.

As for `CC(=O)c1c(O)c2c([nH]c1=O)CCCC2`, the TGI in the test with MALME-3M melanoma, with K-562 leukemia, in the test on COLO 205 colon, in the test on CCRF-CEM leukemia, with A549 NSCLC and with IGROV1 ovarian was > 100 µM throughout.

Regarding `O=C(O)C1=C(C(=O)O)Oc2ccccc2O1`, the concentration for total growth inhibition (TGI) with MALME-3M melanoma, with SK-MEL-2 melanoma, with NCI-H226 lung, with K-562 leukemia, in the test on COLO 205 colon and in the test on CCRF-CEM leukemia was > 100 µM in each case. Also, the TGI in the test on A549 NSCLC and in the test with IGROV1 ovarian was > 100 µM in each case.

In the case of `C/C(CC(=O)Nc1cccc(Cl)c1C)=N\N=C(N)N`, the TGI in the test on MALME-3M melanoma, in the test on SK-MEL-2 melanoma, in the test on NCI-H226 lung, in the test with K-562 leukemia, in the test with COLO 205 colon and in the test with CCRF-CEM leukemia was > 100 µM throughout. In addition, the TGI in the test on A549 NSCLC and in the test with IGROV1 ovarian was > 100 µM throughout.

Consider `NNC(=O)N/N=C1\CNC(=O)C(=O)C1c1nc2ccccc2s1` (centres undefined), for which the TGI with MALME-3M melanoma, with SK-MEL-2 melanoma, in the test with NCI-H226 lung, with K-562 leukemia, in the test on COLO 205 colon and in the test with CCRF-CEM leukemia was > 100 µM throughout. In addition, the TGI in the test on A549 NSCLC and in the test with IGROV1 ovarian was > 100 µM throughout.

As to `CN(C)CCNC(=O)c1cccc2cc3ccc4ccccc4c3nc12`, the TGI was 0.76 µM in the test with MALME-3M melanoma; 0.406 µM with SK-MEL-2 melanoma; 0.488 µM in the test on NCI-H226 lung; > 100 µM in the test on K-562 leukemia; 0.25 µM with COLO 205 colon; 0.267 µM in the test with CCRF-CEM leukemia. Further, the TGI with A549 NSCLC is 0.56 µM; in the test on IGROV1 ovarian it was 1.05 µM.

As for `Nc1nc(-c2ccccc2)cc(-c2cc(Cl)ccc2O)n1`, the TGI in the test on MALME-3M melanoma, in the test with NCI-H226 lung, with K-562 leukemia, in the test with COLO 205 colon, in the test with CCRF-CEM leukemia and in the test on A549 NSCLC was > 100 µM throughout. Also, the TGI in the test on IGROV1 ovarian is > 100 µM.

With `O=C1c2ccoc2C(=O)c2oc(=O)ccc21`, the total growth inhibition concentration (TGI) is 7.84 µM in the test with MALME-3M melanoma; 22 µM in the test on SK-MEL-2 melanoma; > 56.7 µM in the test on NCI-H226 lung; 22.4 µM in the test with K-562 leukemia; > 55.4 µM in the test with COLO 205 colon; 15.7 µM with CCRF-CEM leukemia. For the same compound, the TGI in the test with A549 NSCLC turned out to be 42 µM; with IGROV1 ovarian, 40 µM.

`O=CC(O)C(O)C(OC1OC(CO)C(O)C(O)C1O)C(O)CO` (centres undefined) (tested in a mixture with another compound): the TGI in the test on MALME-3M melanoma was > 100 µM; in the test with SK-MEL-2 melanoma, > 100 µM; in the test with NCI-H226 lung, > 100 µM; in the test with MDA-MB-435 it was > 100 µM; with K-562 leukemia, 98.7 µM; with COLO 205 colon it was > 100 µM. The TGI in the test on A549 NSCLC was > 100 µM; in the test with IGROV1 ovarian, 71.9 µM.

As to `CC(C)=CC(=O)CC(=O)C(=O)NCCNC(=O)C(=O)CC(=O)C=C(C)C`, the TGI in the test on MALME-3M melanoma, in the test on SK-MEL-2 melanoma, in the test with NCI-H226 lung, in the test on COLO 205 colon, in the test with A549 NSCLC and in the test with IGROV1 ovarian was > 50 µM throughout.

As to `c1ccc2c(c1)[O][Sn][O]2`, the GI50 in the test on MALME-3M melanoma was 90.9 µg/mL; with SK-MEL-2 melanoma, 92.6 µg/mL; in the test on NCI-H226 lung, 69.5 µg/mL; in the test with K-562 leukemia, 91.6 µg/mL; in the test with COLO 205 colon, > 150 µg/mL; in the test on CCRF-CEM leukemia, 1.12 µg/mL. Also, the GI50 in the test with A549 NSCLC is 11 µg/mL; with IGROV1 ovarian it was 24.3 µg/mL. For the same compound, the TGI in the test on MALME-3M melanoma, with SK-MEL-2 melanoma, in the test with NCI-H226 lung, in the test on K-562 leukemia, in the test with COLO 205 colon and in the test with CCRF-CEM leukemia was > 150 µg/mL in each case. The TGI in the test on A549 NSCLC and in the test with IGROV1 ovarian was > 150 µg/mL each time.
